Relative oxidative stability data for one compound are collected here from US8399468B2, “Octahydro-pyrrolo[3,4-B]pyrrole derivatives” (Abbott Laboratories, priority 2006, dated 2013).

For the data set the following is noted: compared with the 2-{4′-[(3aR,6aR)-5-methylhexahydropyrrolo[3,4-b]pyrrol-1(2H)-yl]-1,1′-biphenyl-4-yl}pyridazin-3(2H)-one compound.

Regarding `CN1C[C@H]2CCN(c3ccc(-c4ccc(-n5ncccc5=O)cc4)cc3)[C@H]2C1.O.O=C(O)C(O)C(O)C(=O)O` [L-tartrate monohydrate Form A salt, 2-{4′-[(3aR,6aR)-5-Methylhexahydropyrrolo[3,4-b]pyrrol-1(2H)-yl]-1,1′-biphenyl-4-yl}pyridazin-3(2H)-one L-tartrate monohydrate Form A], the relative oxidative stability result was “better relative oxidative stability”.
